Measurements from PMC4757070, “Involvement of a Novel Class C Beta-Lactamase in the Transglutaminase Mediated Cross-Linking Cascade of Streptomyces mobaraensis DSM 40847” (PLoS ONE, 2016).
Like-named read-outs stand apart in the source and are kept apart here.

Key:
[1] = molecular target: T1, beta-lactamase Sml-1 (rSml-1); experiment: inhibition of nitrocefin hydrolysis at […] nm; Ki from IC50 ([…]) by Cheng-Prusoff; assay type: biochemical
T1 construct: recombinant Sml-1 produced in E. coli BL21(DE3) RIL with pelB leader and C-terminal Gly-Leu-Glu-(His)6

[2] = molecular target: T1, beta-lactamase Sml-1 (rSml-1); experiment: as above; assay type: biochemical, Streptomyces mobaraensis

Ki [1] [µM] | Compound | Ki [2] [µM]
180 | CC1(C)S[C@@H]2[C@H](NC(=O)[C@H](N)c3ccccc3)C(=O)N2[C@H]1C(=O)O [ampicillin] | 
 | CC1(C)S[C@@H]2[C@H](NC(=O)Cc3ccccc3)C(=O)N2[C@H]1C(=O)O [penicillin G] | 100
